Measurements published in patent US11000033B2, “Ketone or oxime compound, and herbicide” (NISSAN CHEMICAL CORPORATION, priority 2014, dated 2021).

Columns and labels:
Assay type in all cases: in vivo
[1] = system: directly sowed rice plant; assay: Test Example 3: effect on crop by foliage application, Wagner pot (symbol b); conditions: application herbicide amount 320 g/ha
How it was run: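 Alluvial soil in a 1/10000-are Wagner pot was flooded to a water depth of 0.1–0.5 cm. Echinochloa crus-galli var. crus-galli, Leptochloa chinensis, Cyperus difformis and rice were sown into it and grown in a greenhouse at 25–30 °C.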

Scirpus juncoides = assay: Test Example 2: herbicidal activity, application during weed generation in submerged conditions (symbol B); conditions: Table 23; application herbicide amount 320 g/ha; grade 0-5 by criteria of Test Example 1
How it was run: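 Weeds emerging under flooded conditions were treated with compound formulated as an emulsion and diluted with water to the intended herbicide amount, poured onto the surface of 4 cm standing water. Seeds had been co-sown in alluvial soil; plants grew at 25° C. to 30° C. and were assessed after 3 weeks.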

rapeseed = assay: Test Example 5: effect on crop by foliage application, plastic box (symbol g); conditions: 320 g/ha, 3 weeks after application
How it was run: (§1)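 Crop seed is sown alongside grass and broadleaf weed species in spots in sterilized diluvial soil, then covered to a depth of about 1.5 cm. Plants grow in a greenhouse kept at 25° C. to 30° C.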

Monochoria vaginalis = assay: Test Example 1: herbicidal activity, application before weed generation in submerged conditions (symbol C); conditions: application herbicide amount 320 g/ha
How it was run: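 Ratings (5: ≥90%, near complete withering; 4: 70–<90%; 3: 40–<70%; 2: 20–<40%; 1: 5–<20%; 0: ≤5%) were assigned 3 weeks after the diluted emulsion was applied to the water surface of freshly sown, submerged pots.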

beet = assay: Test Example 4: effect on crop by soil treatment (symbol f); conditions: for f: beet, effect grade on crop: 320 g/ha; for f: beet, effect on crop grade: application herbicide amount 320 g/ha
How it was run: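 Steps: fill box with sterilized diluvial soil; sow seed spot-like; cover with ~1.5 cm soil; grow in greenhouse (25° C. to 30° C.).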

soybean = assay: Test Example 5: effect on crop by foliage application, plastic box (symbol d); conditions: 320 g/ha, 3 weeks after application
How it was run: as §1

Veronica persica = assay: Test Example 5: herbicidal effect by foliage application, plastic box (symbol R); conditions: 320 g/ha, 3 weeks after application
How it was run: (§2)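 Seeds were sown in sterilized diluvial soil, covered with about 1.5 cm of soil and grown 14 days in a greenhouse at 25° C. to 30° C. An emulsifiable formulation diluted in water to a set rate was sprayed over foliage, and injury was scored 3 weeks later.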

Avena fatua = assay: Test Example 5: herbicidal effect by foliage application, plastic box (symbol I); conditions: 320 g/ha, 3 weeks after application
How it was run: as §2

[2] = system: Echinochloa crus-galli var. crus-galli; assay: Test Example 3: herbicidal effect by foliage application, Wagner pot (symbol H); conditions: application herbicide amount 320 g/ha
How it was run: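 Alluvial soil was flooded to a depth of 0.1–0.5 cm, seeded with the weeds and rice, and kept in a greenhouse at 25–30 °C. After 14 days of growth, the foliage received a small-sprayer application of emulsion diluted to the intended rate; injury was rated at 3 weeks.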

Galium spurium = assay: Test Example 4: herbicidal effect by soil treatment (symbol Q)
How it was run: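 Seeds were sown in sterilized diluvial soil, covered with about 1.5 cm of soil, and the soil surface was sprayed with a water-diluted emulsion of the compound at a predetermined rate. Plants grew in a greenhouse at 25° C. to 30° C.; effects were scored visually 3 weeks after application.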

[3] = application herbicide amount 320 g/ha

Compound | effect on crop b (directly sowed rice plant), grade 0-5 [1] | Herbicidal effect grade, B: Scirpus juncoides (Scirpus juncoides) | g: rapeseed, effect on crop (criteria 0-5) (rapeseed) | Herbicidal effect grade, C: Monochoria vaginalis (Monochoria vaginalis) | f: beet, effect grade on crop (beet) | d: soybean, effect on crop (criteria 0-5) (soybean) | R: Veronica persica, herbicidal effect (criteria 0-5) (Veronica persica) | I: Avena fatua, herbicidal effect (criteria 0-5) (Avena fatua) | herbicidal effect on H (Echinochloa crus-galli var. crus-galli), grade 0-5 [2] | Q: Galium spurium, herbicidal effect grade (Galium spurium; 320 g/ha) | g: rapeseed, effect on crop grade (rapeseed) | f: beet, effect on crop grade (beet) | d: soybean, effect on crop grade (soybean) | R: Veronica persica, herbicidal effect grade (Veronica persica) | I: Avena fatua, herbicidal effect grade (Avena fatua) | Q: Galium spurium, herbicidal effect grade (Galium spurium; [3])
C=CCN(CC=C)C(=O)OC1=C(c2c(C)cc(C)cc2C)C(=O)C(CC(C)=NOC)C1 (stereo not drawn) [1-153] | 5 (Herbicidal ratio of 90% or more (almost completely withered)) | 1 (Herbicidal ratio of 5% or higher and lower than 20%) | 4 (Herbicidal ratio of 70% or higher and lower than 90%) | 0 (Herbicidal ratio of 5% or lower (almost no effect)) | 0 (Herbicidal ratio of 5% or lower (almost no effect)) | 1 (Herbicidal ratio of 5% or higher and lower than 20%) | 0 (Herbicidal ratio of 5% or lower (almost no effect)) | 5 (Herbicidal ratio of 90% or more (almost completely withered)) | 5 (Herbicidal ratio of 90% or more (almost completely withered)) | 0 (Herbicidal ratio of 5% or lower (almost no effect)) |  |  |  |  |  | 
CON=C(C)CC1CC(OS(=O)(=O)CC[Si](C)(C)C)=C(c2c(C)cc(C)cc2C)C1=O (stereo not drawn) [1-144] | 5 (Herbicidal ratio of 90% or more (almost completely withered)) | 4 (Herbicidal ratio of 70% or higher and lower than 90%) | 4 (Herbicidal ratio of 70% or higher and lower than 90%) | 3 (Herbicidal ratio of 40% or higher and lower than 70%) | 0 (Herbicidal ratio of 5% or lower (almost no effect)) | 3 (Herbicidal ratio of 40% or higher and lower than 70%) | 3 (Herbicidal ratio of 40% or higher and lower than 70%) | 5 (Herbicidal ratio of 90% or more (almost completely withered)) | 5 (Herbicidal ratio of 90% or more (almost completely withered)) | 0 (Herbicidal ratio of 5% or lower (almost no effect)) |  |  |  |  |  | 
Cc1cc(C)c(C2=C(O)CC(CC(=O)C3CCCCC3)C2=O)c(C)c1 (stereo not drawn) [2-030] | 5 (Herbicidal ratio of 90% or more (almost completely withered)) | 0 (Herbicidal ratio of 5% or lower (almost no effect)) |  | 0 (Herbicidal ratio of 5% or lower (almost no effect)) |  |  |  |  | 4 (Herbicidal ratio of 70% or higher and lower than 90%) |  | 3 (Herbicidal ratio of 40% or higher and lower than 70%) | 0 (Herbicidal ratio of 5% or lower (almost no effect)) | 0 (Herbicidal ratio of 5% or lower (almost no effect)) | 1 (Herbicidal ratio of 5% or higher and lower than 20%) | 1 (Herbicidal ratio of 5% or higher and lower than 20%) | 0 (Herbicidal ratio of 5% or lower (almost no effect))
CON=C(C)CC1CC(OC(=O)N(C)c2ccccc2)=C(c2c(C)cc(C)cc2C)C1=O (stereo not drawn) [1-159] | 5 (Herbicidal ratio of 90% or more (almost completely withered)) | 1 (Herbicidal ratio of 5% or higher and lower than 20%) |  | 0 (Herbicidal ratio of 5% or lower (almost no effect)) | 0 (Herbicidal ratio of 5% or lower (almost no effect)) |  |  |  | 4 (Herbicidal ratio of 70% or higher and lower than 90%) | 0 (Herbicidal ratio of 5% or lower (almost no effect)) | 4 (Herbicidal ratio of 70% or higher and lower than 90%) |  | 1 (Herbicidal ratio of 5% or higher and lower than 20%) | 0 (Herbicidal ratio of 5% or lower (almost no effect)) | 5 (Herbicidal ratio of 90% or more (almost completely withered)) | 
CON=C(C)CC1CC(OC(=O)c2ccccc2OC(F)(F)F)=C(c2c(C)cc(C)cc2C)C1=O (stereo not drawn) [1-155] | 5 (Herbicidal ratio of 90% or more (almost completely withered)) | 5 (Herbicidal ratio of 90% or more (almost completely withered)) | 4 (Herbicidal ratio of 70% or higher and lower than 90%) | 1 (Herbicidal ratio of 5% or higher and lower than 20%) | 0 (Herbicidal ratio of 5% or lower (almost no effect)) | 3 (Herbicidal ratio of 40% or higher and lower than 70%) | 3 (Herbicidal ratio of 40% or higher and lower than 70%) | 5 (Herbicidal ratio of 90% or more (almost completely withered)) | 5 (Herbicidal ratio of 90% or more (almost completely withered)) | 0 (Herbicidal ratio of 5% or lower (almost no effect)) |  |  |  |  |  | 
CON=C(C)CC1CC(O)=C(c2c(C)cc(OCC(F)(F)F)cc2C)C1=O (stereo not drawn) [6-049] | 5 (Herbicidal ratio of 90% or more (almost completely withered)) | 4 (Herbicidal ratio of 70% or higher and lower than 90%) |  | 4 (Herbicidal ratio of 70% or higher and lower than 90%) |  |  |  |  | 5 (Herbicidal ratio of 90% or more (almost completely withered)) |  | 5 (Herbicidal ratio of 90% or more (almost completely withered)) | 3 (Herbicidal ratio of 40% or higher and lower than 70%) | 2 (Herbicidal ratio of 20% or higher and lower than 40%) | 5 (Herbicidal ratio of 90% or more (almost completely withered)) | 0 (Herbicidal ratio of 5% or lower (almost no effect)) | 3 (Herbicidal ratio of 40% or higher and lower than 70%)
